Source: publication PMC10287898 (2023)

Columns and labels:
Experiment in all cases: ligand-induced self-cleavage, PAGE, SYBR Gold
[1] = tested on: II-R1-3 (DNA, aptamer) CATGACCACTAGGAGCATCTTTGGCGAGAAGACTCTGGATTCGGGGACCAGTTGCTGCTAGGGGAATAAATCTTTGGGCACCTAGTGGTCATG; conditions: 100 mM NaCl, 40 mM MgCl2, 1 mM ZnCl2, 50 mM HEPES, pH 7.05; for ligand-induced cleavage: 30 min; for KD: apparent, half-maximal cleavage, 0.1-100 μM ligand
[2] = tested on: II-R1-1 (DNA, aptamer) CATGACCACTAGGAGCATCTTTGGCGAGATCGGGAGAATCGGTGGCATTGGTGTCTCCTAGGGGAATAAATCTTTGGGCACCTAGTGGTCATG; conditions: 100 mM NaCl, 40 mM MgCl2, 1 mM ZnCl2; 50 mM HEPES, pH 7.05; apparent, half-maximal cleavage
[3] = tested on: II-R1-7 (DNA, aptamer) CATGACCACTAGGAGCATCTTTGGCGATCCTCGTCAGATGGTGAAGCAGACGTTTGGCTAGGGGAATAAATCTTTGGGCACCTAGTGGTCATG; conditions: 100 mM NaCl, 40 mM MgCl2, 1 mM ZnCl2; 50 mM HEPES, pH 7.05; apparent, half-maximal cleavage

Row | ligand-induced cleavage ([1]; tested at 100 μM, no cleavage induced) | KD [1] [µM] | KD [2] [µM] | KD [3] [µM] | ligand-induced cleavage ([1]; 100 μM, fraction cleaved 0.235 (L-Phe 0.325)) | Compound
1 | no | – | – | – | – | N[C@H](Cc1ccccc1)C(=O)O
2 | – | 6.8 ± 0.7 | 71.6 ± 9.8 | 118.9 ± 11.7 | – | N[C@@H](Cc1ccc(O)cc1)C(=O)O
3 | – | – | – | – | yes | NC(Cc1ccc(F)cc1)C(=O)O (racemic)
4 | – | 4.8 ± 1.4 | 20.3 ± 1.6 | 19.3 ± 2.4 | – | N[C@@H](Cc1ccccc1)C(=O)O
